25 compounds from patent US7217730B2, “Method for the use of pyranoindole derivatives to treat infection with Hepatitis C virus” (Wyeth, priority 2002, dated 2007) can be followed below.

As usually defined, the IC50 is the concentration needed to halve the response being measured.

Assay [1] concerns the target BB7 (RNA-dependent RNA polymerase hepatitis C virus protein sequence derived from HCV replicon) (Hepatitis C virus genotype 1b, UniProt Q9WMX2). Put plainly: Hepatitis C polymerase inhibition, BB7 sequence. Type of assay: biochemical. As to conditions: Table 1B.
Assay [2] addresses T1, NS5B from the BK strain (genotype 1b) (Hepatitis C virus genotype 1b, UniProt P26663).
T1 construct: NS5B from the BK strain (genotype 1b) is expressed in E. coli as a protein in which the 21 C-terminal amino acids are replaced; made in house; host or cells: E. coli
As to the kind of experiment: Hepatitis C polymerase inhibition, NS5B BK strain, 33P-GTP filter assay. The note with it: Table 1B; NS5B BK strain; read-out: BK IC50. Type of assay: biochemical. In short, it runs like this:
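E. coli-expressed NS5B (BK, genotype 1b) with the 21 C-terminal residues replaced by a linker-His6 tag was preincubated with compound for 15 min at room temperature. It then extended a hairpin-primed heteropolymeric RNA (~3 nM, ~760 nt product) with α-[33P]-GTP for 2 h at 22–25° C. The reaction was stopped with EDTA, and incorporated label was counted on filters.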

Bounds are passed on as bounds.

Chain of BB7 (RNA-dependent RNA polymerase hepatitis C virus protein sequence derived from HCV replicon) (Q9WMX2 2420-3010): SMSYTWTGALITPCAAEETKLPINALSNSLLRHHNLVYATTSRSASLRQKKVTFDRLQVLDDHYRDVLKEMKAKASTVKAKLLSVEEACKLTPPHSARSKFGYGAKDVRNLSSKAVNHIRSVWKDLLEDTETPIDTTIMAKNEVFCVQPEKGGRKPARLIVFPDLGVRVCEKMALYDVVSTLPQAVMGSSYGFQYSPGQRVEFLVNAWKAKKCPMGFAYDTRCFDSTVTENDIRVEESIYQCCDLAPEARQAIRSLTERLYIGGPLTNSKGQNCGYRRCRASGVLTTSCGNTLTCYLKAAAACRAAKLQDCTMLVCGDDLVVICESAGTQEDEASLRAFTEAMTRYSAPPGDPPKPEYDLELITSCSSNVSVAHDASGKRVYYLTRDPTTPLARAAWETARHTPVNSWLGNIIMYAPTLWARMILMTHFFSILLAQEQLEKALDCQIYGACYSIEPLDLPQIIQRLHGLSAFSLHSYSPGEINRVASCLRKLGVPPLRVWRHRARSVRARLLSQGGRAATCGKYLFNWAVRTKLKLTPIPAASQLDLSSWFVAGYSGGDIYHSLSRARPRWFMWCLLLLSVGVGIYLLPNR
T1 sequence (P26663 2420-2989): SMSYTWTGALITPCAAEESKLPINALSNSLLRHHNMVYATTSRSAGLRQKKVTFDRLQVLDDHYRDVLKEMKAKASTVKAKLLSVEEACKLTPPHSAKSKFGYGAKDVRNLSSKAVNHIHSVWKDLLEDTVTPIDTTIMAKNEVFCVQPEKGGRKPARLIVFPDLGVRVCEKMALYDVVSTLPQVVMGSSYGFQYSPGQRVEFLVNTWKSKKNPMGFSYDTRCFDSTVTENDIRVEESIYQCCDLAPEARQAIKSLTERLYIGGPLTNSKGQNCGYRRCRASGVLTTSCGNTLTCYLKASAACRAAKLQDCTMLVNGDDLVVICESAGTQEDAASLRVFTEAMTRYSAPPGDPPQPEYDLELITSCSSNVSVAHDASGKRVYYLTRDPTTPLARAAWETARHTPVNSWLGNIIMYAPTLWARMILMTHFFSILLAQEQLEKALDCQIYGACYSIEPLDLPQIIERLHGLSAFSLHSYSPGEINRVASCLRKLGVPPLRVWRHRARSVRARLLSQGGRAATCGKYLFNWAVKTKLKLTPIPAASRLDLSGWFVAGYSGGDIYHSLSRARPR

Turning to `COCCC1(CC(=O)O)OCCc2c1[nH]c1ccc(Cl)c(Cl)c21` (centres unmarked) [Example 238, [5,6-dichloro-1-(2-methoxyethyl)-1,3,4,9-tetrahydropyrano[3,4-b]indol-1-yl]acetic acid], the IC50 in assay [1] is above 30 µM; in assay [2] it was 19 µM.
For `O=C(O)CC1(CCC(F)(F)F)OCCc2c1[nH]c1ccc(Cl)c(Cl)c21` (centres unmarked) [Example 239, [5,6-dichloro-1-(3,3,3-trifluoropropyl)-1,3,4,9-tetrahydropyrano[3,4-b]indol-1-yl]acetic acid] the same measures were 5.4 µM and 4.6 µM.
`CCCC1(CC(=O)O)OCCc2c1[nH]c1cc(Cl)c(Cl)cc21` (centres unmarked) [Example 240, (6,7-dichloro-1-propyl-1,3,4,9-tetrahydropyrano[3,4-b]indol-1-yl)acetic acid]: the IC50 in assay [1] was 18 µM; in assay [2] it was 8.9 µM.
Take `CCC1(CC(=O)O)OCCc2c1[nH]c1c(Cl)ccc(Cl)c21` (centres unmarked) [Example 243, (5,8-dichloro-1-ethyl-1,3,4,9-tetrahydropyrano[3,4-b]indol-1-yl)acetic acid]: the IC50 in assay [1] worked out at 10 µM; in assay [2] it was 6.3 µM.
For `N#CCCCC1(CC(=O)O)OCCc2c1[nH]c1c(Cl)ccc(Cl)c21` (centres unmarked) [Example 244, [5,8-dichloro-1-(3-cyanopropyl)-1,3,4,9-tetrahydropyrano[3,4-b]indol-1-yl)acetic acid] the same measures were 1.8 µM and 0.3 µM.
The like results for `O=C(O)CC1(CCC(F)(F)F)OCCc2c1[nH]c1c(Cl)ccc(Cl)c21` (centres unmarked) [Example 245, [5,8-dichloro-1-(3,3,3-trifluoropropyl)-1,3,4,9-tetrahydropyrano[3,4-b]indol-1-yl]acetic acid] were, in that order, 0.74 µM and 0.4 µM.
For `COCC1(CC(=O)O)OCCc2c1[nH]c1c(Cl)ccc(Cl)c21` (centres unmarked) [Example 246, (5,8-dichloro-1-methoxymethyl-1,3,4,9-tetrahydropyrano[3,4-b]indol-1-yl)acetic acid] the same measures were above 30 µM and above 30 µM.
For the compound `COCCC1(CC(=O)O)OCCc2c1[nH]c1c(Cl)ccc(Cl)c21` (centres unmarked) [Example 247, [5,8-dichloro-1-(2-methoxyethyl)-1,3,4,9-tetrahydropyrano[3,4-b]indol-1-yl]acetic acid], the IC50 in assay [1] was 18 µM; in assay [2] it was above 24 µM.
For the compound `CCOCC1(CC(=O)O)OCCc2c1[nH]c1c(Cl)ccc(Cl)c21` (centres unmarked) [Example 248, (5,8-dichloro-1-ethoxymethyl-1,3,4,9-tetrahydropyrano[3,4-b]indol-1-yl)acetic acid], the concentration for half-maximal inhibition (IC50) in assay [1] and in assay [2] was above 30 µM each time.
As for `CSCC1(CC(=O)O)OCCc2c1[nH]c1c(Cl)ccc(Cl)c21` (centres unmarked) [Example 249, (5,8-dichloro-1-methylthiomethyl-1,3,4,9-tetrahydropyrano[3,4-b]indol-1-yl)acetic acid], the IC50 in assay [1] worked out at 12 µM; in assay [2] it was 7 µM.
For `CCSCC1(CC(=O)O)OCCc2c1[nH]c1c(Cl)ccc(Cl)c21` (centres unmarked) [Example 250, (5,8-dichloro-1-ethylthiomethyl-1,3,4,9-tetrahydropyrano[3,4-b]indol-1-yl)acetic acid] the same measures were 3.9 µM and 3.7 µM.
The like results for `C=CCCC1(CC(=O)O)OCCc2c1[nH]c1c(Cl)ccc(Cl)c21` (centres unmarked) [Example 251, [5,8-dichloro-1-(3-butenyl)-1,3,4,9-tetrahydropyrano[3,4-b]indol-1-yl]acetic acid] were, in that order, 3.5 µM and 1.7 µM.
Turning to `O=C(O)CC1(C2CC2)OCCc2c1[nH]c1c(Cl)ccc(Cl)c21` (centres unmarked) [Example 252, (5,8-dichloro-1-cyclopropyl-1,3,4,9-tetrahydropyrano[3,4-b]indol-1-yl)acetic acid], the IC50 in assay [1] is 19 µM; in assay [2], 7.3 µM.
Take `O=C(O)CC1(C2CCC2)OCCc2c1[nH]c1c(Cl)ccc(Cl)c21` (centres unmarked) [Example 253, (5,8-dichloro-1-cyclobutyl-1,3,4,9-tetrahydropyrano[3,4-b]indol-1-yl)acetic acid]: the IC50 in assay [1] was determined as 0.7 µM; in assay [2], 0.35 µM.
With `O=C(O)CC1(C2CCCC2)OCCc2c1[nH]c1c(Cl)ccc(Cl)c21` (centres unmarked) [Example 254, (5,8-dichloro-1-cyclopentyl-1,3,4,9-tetrahydropyrano[3,4-b]indol-1-yl)acetic acid], the results for the IC50 in assay [1] and in assay [2] were 5.8 µM and 3.3 µM, respectively.
Consider `O=C(O)CC1(C2CCCCC2)OCCc2c1[nH]c1c(Cl)ccc(Cl)c21` (centres unmarked) [Example 255, (5,8-dichloro-1-cyclohexyl-1,3,4,9-tetrahydropyrano[3,4-b]indol-1-yl)acetic acid], for which the IC50 in assay [1] was 15 µM; in assay [2], above 30 µM.
Regarding `CCC(C)C1(CC(=O)O)OCCc2c1[nH]c1c(Cl)ccc(Cl)c21` (centres unmarked) [Example 256, [5,8-dichloro-1-(1-methylpropyl)-1,3,4,9-tetrahydropyrano[3,4-b]indol-1-yl]acetic acid], the IC50 in assay [1] came to 0.34 µM; in assay [2], 0.15 µM.
The like results for `O=C(O)CC1(CC2CC2)OCCc2c1[nH]c1c(Cl)ccc(Cl)c21` (centres unmarked) [Example 257, (5,8-dichloro-1-cyclopropylmethyl-1,3,4,9-tetrahydropyrano[3,4-b]indol-1-yl)acetic acid] were, in that order, 2.9 µM and 1.9 µM.
For `O=C(O)CC1(CC2CCCC2)OCCc2c1[nH]c1c(Cl)ccc(Cl)c21` (centres unmarked) [Example 258, (5,8-dichloro-1-cyclopentylmethyl-1,3,4,9-tetrahydropyrano[3,4-b]indol-1-yl)acetic acid] the same measures were 14 µM and 9.4 µM.
As to `Cc1ccc(Cl)c2c3c([nH]c12)C(CC(=O)O)(C1CCC1)OCC3` (centres unmarked) [Example 259, (5-chloro-1-cyclobutyl-8-methyl-1,3,4,9-tetrahydropyrano[3,4-b]indol-1-yl)acetic acid], the IC50 in assay [1] was 1.6 µM; in assay [2], 0.5 µM.
`CCCC1(CC(=O)O)OCCc2c1[nH]c1c(C)ccc(Cl)c21` (centres unmarked) [Example 260, (5-chloro-8-methyl-1-propyl-1,3,4,9-tetrahydropyrano[3,4-b]indol-1-yl)acetic acid]: the IC50 in assay [1] turned out to be 1.2 µM; in assay [2], 0.4 µM.
As for `CCCC1(CC(=O)O)OCCc2c1[nH]c1c(Cl)ccc(C)c21` (centres unmarked) [Example 262, (8-chloro-5-methyl-1-propyl-1,3,4,9-tetrahydropyrano[3,4-b]indol-1-yl)acetic acid], the IC50 in assay [1] turned out to be 8.3 µM; in assay [2], 2.7 µM.
The like results for `O=C(O)CC1(CCC(F)(F)F)OCCc2c1[nH]c1c(Cl)ccc(C(F)(F)F)c21` (centres unmarked) [Example 263, [8-chloro-5-trifluoromethyl-1-(3,3,3-trifluoropropyl)-1,3,4,9-tetrahydropyrano[3,4-b]indol-1-yl]acetic acid] were, in that order, 3.2 µM and 1.3 µM.
The like results for `COCCC1(CC(=O)O)OCCc2c1[nH]c1c(Cl)ccc(C(F)(F)F)c21` (centres unmarked) [Example 265, [8-chloro-1-(2-methoxyethyl)-5-trifluoromethyl-1,3,4,9-tetrahydropyrano[3,4-b]indol-1-yl]acetic acid] were, in that order, 22 µM and 20 µM.
For `CCOCC1(CC(=O)O)OCCc2c1[nH]c1c(Cl)ccc(C(F)(F)F)c21` (centres unmarked) [Example 266, (8-chloro-1-ethoxymethyl-5-trifluoromethyl-1,3,4,9-tetrahydropyrano[3,4-b]indol-1-yl)acetic acid], the IC50 amounted to 17 µM in assay [1] and 14 µM in assay [2].
